Measurements published in patent US20100130457A1, “Phenothiazine Derivatives for Treatment of Asthma” (Immune Control, Inc., priority 2008, published 2010).
“Also recorded” adds a separate entry of the source. Like-named read-outs stand apart in the source and are kept apart here.

How the values were obtained:
hCav1.2 = hCav1.2 (Homo sapiens, UniProt Q13936); assay: Cardiac ion channels expressed in mammalian cells; assay type: cell-based; conditions: 0.1 μM, 1 μm, 10 μm, and 100 μm
Text: Opening of voltage-gated calcium channels results in influx of calcium ions into the cell. This influx of calcium plays an important role in excitation-contraction coupling in cardiac and skeletal muscle fibers. The reversal potential for calcium is extremely positive, so calcium current is almost always inward, resulting in an action potential plateau in many excitable cells. These channels are the target of calcium channel blocker subtype of antihypertensive drugs. The alpha-1 subunit forms the ion conducting pore, with several modulating auxiliary subunits. Major subtypes of voltage-gated calcium channels include L-type (Cav1.1, Cav1.2, Cav1.3, Cav1.4), T-type (Cav3.1, Cav3.2, Cav3.3), N-type (Cav2.2), P-type (Cav2.1), and R-type (Cav2.3).
Mammalian cells were treated with ICI-735 (0.1 μM, 1 μm, 10 μm, and 100 μm) to determine whether ICI-735 blocked the expression of cardiac ion channels. It was observed that ICI-735 was able to block the expression of both hERG and hCav1.2). Without wishing to be bound by any particular theory, it is believed that the blocks in hERG and calcium channels may cancel one another physiologically, but sodium channel effect may lead to changes in membrane potential.

RPMI 8226 = assay: Inhibition of proliferation of RPMI 8226 cells; assay type: cell-based, human; conditions: RPMI cells in vitro
Text: The next set of experiments was designed to assess compounds that have low levels of brain penetration for the ability of the test compounds to inhibit cellular proliferation. An exemplary in vitro assay is to screen for the ability of the test compounds to inhibit proliferation of the B-cell neoplastic cell line RPMI 8226 (a plasmacytoma derived from a multiple myeloma patient (Matsuoka, et al., 1967, Proc. Soc. Exp. Biol. Med. 125: 1246-1250). However other cell line can be used such as, U266 (established from an IgE-secreting myeloma patient (Nilsson, et al., 1970, Clin. Exp. Immunol., 7: 477-489) and ARH77 (an EBV transformed plasma cell leukemia (Burk, et al., 1978, Cancer Res. 38: 2508-2513).
FIG. 1 is a graph depicting the effects on the test compounds on RPMI cell viability.

muscarinic receptor M3 [1] = target: T1, muscarinic receptor M3 (Homo sapiens, UniProt P20309); assay: In vitro functional antagonism; assay type: biochemical
T1 sequence (P20309 whole entry): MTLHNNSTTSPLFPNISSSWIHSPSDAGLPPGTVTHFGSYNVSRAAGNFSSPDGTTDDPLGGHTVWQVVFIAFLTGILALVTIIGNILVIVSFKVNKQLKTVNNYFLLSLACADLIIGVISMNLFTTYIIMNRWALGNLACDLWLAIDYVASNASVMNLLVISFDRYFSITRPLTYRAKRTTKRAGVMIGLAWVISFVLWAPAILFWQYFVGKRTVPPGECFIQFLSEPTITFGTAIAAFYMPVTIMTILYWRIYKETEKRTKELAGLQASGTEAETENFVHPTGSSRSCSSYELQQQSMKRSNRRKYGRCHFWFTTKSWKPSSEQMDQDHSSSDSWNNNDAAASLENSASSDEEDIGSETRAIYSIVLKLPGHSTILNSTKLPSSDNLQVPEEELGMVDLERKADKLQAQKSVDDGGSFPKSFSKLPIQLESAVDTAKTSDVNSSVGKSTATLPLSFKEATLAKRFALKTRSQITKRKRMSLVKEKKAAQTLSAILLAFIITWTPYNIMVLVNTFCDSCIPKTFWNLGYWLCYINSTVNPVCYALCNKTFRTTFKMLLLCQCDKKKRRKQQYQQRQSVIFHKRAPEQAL

[2] = system: panel of leukotriene and prostanoid receptors; assay: Receptor binding panel
hERG = target: T2, hERG (Homo sapiens, UniProt Q12809); assay: Cardiac ion channels expressed in mammalian cells; assay type: cell-based; conditions: 0.1 μM, 1 μm, 10 μm, and 100 μm
T2 construct: expressed in transfected cells
T2 sequence (Q12809 whole entry): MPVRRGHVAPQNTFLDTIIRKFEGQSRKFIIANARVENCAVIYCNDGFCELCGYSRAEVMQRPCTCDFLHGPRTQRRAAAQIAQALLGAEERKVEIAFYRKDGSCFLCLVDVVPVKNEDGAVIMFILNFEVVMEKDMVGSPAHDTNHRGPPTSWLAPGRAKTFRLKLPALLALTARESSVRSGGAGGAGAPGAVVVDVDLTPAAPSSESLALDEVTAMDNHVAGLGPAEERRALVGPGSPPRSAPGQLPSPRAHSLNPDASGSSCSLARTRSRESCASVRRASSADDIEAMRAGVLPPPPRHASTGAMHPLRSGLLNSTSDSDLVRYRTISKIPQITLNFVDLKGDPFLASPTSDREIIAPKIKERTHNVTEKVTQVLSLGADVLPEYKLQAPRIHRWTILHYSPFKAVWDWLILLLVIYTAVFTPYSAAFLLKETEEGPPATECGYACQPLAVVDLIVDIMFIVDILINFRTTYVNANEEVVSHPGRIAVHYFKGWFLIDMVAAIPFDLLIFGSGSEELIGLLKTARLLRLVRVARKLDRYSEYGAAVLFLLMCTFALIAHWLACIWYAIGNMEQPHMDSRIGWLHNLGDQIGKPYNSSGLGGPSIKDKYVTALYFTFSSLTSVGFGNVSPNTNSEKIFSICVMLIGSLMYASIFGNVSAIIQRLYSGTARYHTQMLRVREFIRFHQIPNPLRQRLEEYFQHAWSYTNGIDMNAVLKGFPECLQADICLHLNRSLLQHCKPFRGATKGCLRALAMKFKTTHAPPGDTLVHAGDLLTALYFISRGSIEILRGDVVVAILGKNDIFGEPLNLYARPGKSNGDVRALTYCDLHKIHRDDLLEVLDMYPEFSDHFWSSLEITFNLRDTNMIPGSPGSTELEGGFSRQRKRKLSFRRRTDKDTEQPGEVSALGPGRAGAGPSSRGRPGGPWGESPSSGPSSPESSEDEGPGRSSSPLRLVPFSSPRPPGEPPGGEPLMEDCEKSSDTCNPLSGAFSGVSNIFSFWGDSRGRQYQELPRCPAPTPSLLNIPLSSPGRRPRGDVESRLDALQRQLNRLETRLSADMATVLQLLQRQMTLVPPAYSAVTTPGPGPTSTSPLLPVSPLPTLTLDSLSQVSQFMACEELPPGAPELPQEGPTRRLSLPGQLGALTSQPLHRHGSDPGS
Text: Voltage-gated K channels are activated by membrane depolarization. As with all voltage-gated ion channels, depolarization results in a conformational change in the S4 voltage sensor which contains positively charged amino acids. This conformational change triggers additional conformational changes leading to channel opening. Upon depolarization, these channels open, allowing the efflux of potassium from the cell, down its electrochemical gradient. They function in the heart and brain to repolarize the membrane potential and to terminate an action potential. A-type potassium currents are quickly inactivating potassium currents (eg, Kv4.2 and Kv1.4) and are important in the initial notch of repolarization in cardiac cells and the fast-spiking behavior of some neurons. Slowly inactivating channels provide more prolonged repolarization effects (eg, Kv1.5, Kv3.1, Kv2.1). hERG (human Ether-a-go-go Related Gene) channels are unusual voltage-gated potassium channels in that they are inwardly rectifying due to accelerated inactivation at positive voltages. hERG channels play a role in long-QT syndrome and block of hERG can precipitate torsades de pointe which may lead to fatal ventricular fibrillation. Screening of drugs for effects on hERG is desirable in investigational compounds. […]

muscarinic receptor M3 [3] = target: T1, muscarinic receptor M3; assay: Receptor binding
[4] = system: isolated rabbit Purkinje fibers; assay: Action potential of isolated rabbit Purkinje fibers
Text: Further assessment in rabbit Punkinje fibers was undertaken to directly measure concentration-dependent changes in action potential induced by ICI-735.

Nav1.5 = Nav1.5 (Homo sapiens, UniProt Q14524); assay: Effects on action potential in a mammalian cell, sodium channel block; assay type: cell-based
Nav1.5, sequence (Q14524 whole entry): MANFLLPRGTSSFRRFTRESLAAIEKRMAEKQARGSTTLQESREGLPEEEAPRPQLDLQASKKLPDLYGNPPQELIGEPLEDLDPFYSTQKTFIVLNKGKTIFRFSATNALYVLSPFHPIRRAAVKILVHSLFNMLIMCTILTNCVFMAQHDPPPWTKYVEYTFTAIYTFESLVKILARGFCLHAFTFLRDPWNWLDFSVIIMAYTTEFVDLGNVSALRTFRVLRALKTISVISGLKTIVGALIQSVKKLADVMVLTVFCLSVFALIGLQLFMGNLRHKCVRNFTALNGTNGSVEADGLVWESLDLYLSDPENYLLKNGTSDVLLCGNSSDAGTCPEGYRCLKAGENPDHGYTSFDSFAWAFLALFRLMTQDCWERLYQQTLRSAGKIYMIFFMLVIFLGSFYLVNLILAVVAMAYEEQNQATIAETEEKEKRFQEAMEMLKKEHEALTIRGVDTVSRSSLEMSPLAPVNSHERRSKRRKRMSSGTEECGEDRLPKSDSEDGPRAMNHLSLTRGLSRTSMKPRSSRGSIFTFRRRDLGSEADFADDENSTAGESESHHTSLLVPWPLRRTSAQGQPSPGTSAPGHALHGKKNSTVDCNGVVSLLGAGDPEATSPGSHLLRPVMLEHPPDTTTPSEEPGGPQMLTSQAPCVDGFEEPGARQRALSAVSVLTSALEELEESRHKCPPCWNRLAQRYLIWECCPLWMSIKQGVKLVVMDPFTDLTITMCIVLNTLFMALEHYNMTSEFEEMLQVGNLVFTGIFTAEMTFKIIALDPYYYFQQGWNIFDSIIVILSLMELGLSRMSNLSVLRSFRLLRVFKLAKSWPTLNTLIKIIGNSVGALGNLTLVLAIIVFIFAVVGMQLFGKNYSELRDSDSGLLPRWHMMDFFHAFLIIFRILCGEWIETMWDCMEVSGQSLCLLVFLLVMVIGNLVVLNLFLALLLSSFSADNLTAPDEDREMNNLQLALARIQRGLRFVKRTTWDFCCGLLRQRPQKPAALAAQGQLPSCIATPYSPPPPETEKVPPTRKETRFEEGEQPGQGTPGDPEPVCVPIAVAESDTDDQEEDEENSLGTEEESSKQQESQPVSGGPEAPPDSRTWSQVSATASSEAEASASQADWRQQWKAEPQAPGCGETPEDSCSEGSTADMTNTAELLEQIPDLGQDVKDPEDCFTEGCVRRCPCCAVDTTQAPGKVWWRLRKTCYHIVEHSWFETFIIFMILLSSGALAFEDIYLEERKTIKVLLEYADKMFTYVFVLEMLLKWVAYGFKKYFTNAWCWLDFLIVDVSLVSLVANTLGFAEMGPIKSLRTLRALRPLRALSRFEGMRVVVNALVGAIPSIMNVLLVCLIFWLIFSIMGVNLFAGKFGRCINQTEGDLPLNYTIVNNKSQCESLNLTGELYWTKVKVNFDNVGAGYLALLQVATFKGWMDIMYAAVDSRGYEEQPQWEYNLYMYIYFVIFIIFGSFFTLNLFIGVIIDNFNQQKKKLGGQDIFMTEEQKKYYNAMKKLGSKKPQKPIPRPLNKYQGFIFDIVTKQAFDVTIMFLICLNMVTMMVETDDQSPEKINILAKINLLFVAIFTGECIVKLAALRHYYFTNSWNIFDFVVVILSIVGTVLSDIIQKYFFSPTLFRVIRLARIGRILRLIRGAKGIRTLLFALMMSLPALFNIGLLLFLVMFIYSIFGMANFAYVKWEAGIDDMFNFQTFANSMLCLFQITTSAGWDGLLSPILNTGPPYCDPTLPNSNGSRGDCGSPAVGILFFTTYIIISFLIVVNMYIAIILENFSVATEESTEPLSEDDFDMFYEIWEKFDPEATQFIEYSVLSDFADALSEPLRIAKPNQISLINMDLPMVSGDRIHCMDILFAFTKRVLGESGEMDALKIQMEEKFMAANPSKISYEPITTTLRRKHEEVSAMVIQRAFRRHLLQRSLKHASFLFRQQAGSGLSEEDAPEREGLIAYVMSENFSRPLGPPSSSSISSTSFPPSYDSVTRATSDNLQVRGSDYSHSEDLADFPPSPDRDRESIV
Text: Voltage-gated sodium channels are responsible for the initial phase of the action potential, which is a wave of electrical depolarisation usually initiated at the soma of the neuron and propagated along the nerve axon to the terminals. At the terminals, the action potential triggers the influx of calcium and the release of neurotransmitter. The voltage-gated sodium channel family is made up of four brain specific subtypes, Nav1.1, 1.2, 1.3 and 1.6; as well as Nav1.4, which is found on skeletal muscle; Nav1.5, which is found on cardiac muscle; and Nav1.7, 1.8, 1.9, are found predominantly on sensory neurons.
The effects of ICI-735 on action potential in a mammalian cell was tested. Briefly, it was observed that ICI-735 was able to block Nav1.5.

MPR1-MDCK = MPR1-MDCK permeability, potential to cross the blood-brain barrier; assay type: in vitro ADME; conditions: from A-B Papp and efflux ratio
Text: (§1) A criterion for selecting an agent for proceeding to clinical trials is whether the compound crosses the blood-brain barrier. […] Fluphenazine (ICI-01175) is used as a control compound that has the potential to cross the blood-brain barrier. Table 1 summarizes the results of the test compounds for their potential to cross the blood-brain barrier.

[5] = as above; assay type: in vitro ADME; conditions: dog, MDCK
Text: as §1

AdrR2 receptor = assay: Receptor binding
[6] = system: BALB/c mice, Af-induced allergic airway inflammation; assay: Bronchoalveolar lavage (BAL) analysis for cell count and cytokines in the asthma model; assay type: in vivo, mouse
Description: Lungs from the tested animals in Example 2 were lavaged with either a small volume (1 ml) of sterile PBS or a large volume (5 ml) of sterile saline, and total and differential cell counts were performed as described previously (Haczku et al., 1999 Am. J. Respir. Crit. Care Med. 159: 1638-1643; Haczku et al., 2000 Am. J. Respir. Crit. Care Med. 161: 952-960).
With respect to the murine model of allergen induced AHR, BALB/c mice were sensitized and challenged via intranasal instillation of Aspergillus fumigatus (Af). Two hours prior to each intranasal challenge, cohorts of five mice were administered intra peritonially (i.p.) with ICI-735 (1 mg/ml), dexamethasone (10 mg/ml). Four hours after the last allergen challenge, airway function was assessed by flexivent. Differential cytokine and immune cell abundance were also accessed in BAL fluid.

NCC(=O)NCCN1CCN(CCCN2c3ccccc3Sc3ccc(C(F)(F)F)cc32)CC1 [ICI-735]
block of hCav1.2 (hCav1.2): able to block
ability to inhibit proliferation of RPMI cells (RPMI 8226): did not inhibit proliferation of RPMI cells in vitro as well as some other compounds; also recorded: effective, but not as effective
in vitro functional antagonism for muscarinic receptor M3 (muscarinic receptor M3 [1]): weak in vitro functional antagonism; also recorded: weak or undetectable
binding to a panel of leukotriene and prostanoid receptors [2]: does not bind
block of hERG (hERG): able to block
binding to muscarinic receptor M3 (muscarinic receptor M3 [3]): weak binding; also recorded: weak or undetectable
effect on action potential duration at 60% (APD60) and APD90 [4]: lack of effect
IC50 (Nav1.5): 8.33 µM
block of Nav1.5 (Nav1.5): able to block
Brain Penetration Classification (MPR1-MDCK): Low (A-B Papp > 3.0 and Efflux Ratio > 10: Low)
Papp A→B ([5]; A-B direction): 0.23 ×10⁻⁶ cm/s
recovery ([5]; A-B direction, read-out: % Recovery A-B): 47%
Papp B→A ([5]; B-A direction): 28.6 ×10⁻⁶ cm/s
recovery ([5]; B-A direction, read-out: % Recovery B-A): 33%
efflux ratio ([5]; efflux ratio): 124
binding to AdrR2 receptor (AdrR2 receptor): does not bind; also recorded: weak or undetectable
cytokine production in BAL ([6]; Af-sensitized mice): little effect; also recorded: no significant effects
total number of cells / immune cell infiltration in BAL ([6]; asthmatic animals, treated vs untreated): not a significant difference; also recorded: little effect; also recorded: no significant effects
